In this assay the test system is L1210 leukemia ip in BDF1 mice, survival T/C. Description: NCI In Vivo Anticancer Drug Screen. Data for tumor model L1210 Leukemia (intraperitoneal) in B6D2F1 (BDF1) mice. As to conditions: endpoint: mean survival time, higher = longer survival. In short, it runs like this:
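Read-out is survival time, reported as the treated-group measurement over the vehicle-control measurement.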

Where [1] appears, read: dose: 100.0 mg/kg/injection, schedule: Q01DX009 (ip), vehicle: saline with Tween-80.
[2] abbreviates: dose: 200.0 mg/kg/injection, schedule: Q01DX009 (ip), vehicle: saline with Tween-80.

For 8 compounds, T/C results are on record in PubChem BioAssay AID248 (DTP/NCI, 2004).

The structures appear in SMILES notation. Where “and” joins values, the source holds several entries; their conditions need not be identical. Equal values may be shown once. Toxic doses and inconclusive results are not listed.

For `CC(=O)Nc1cc(F)c([N+](=O)[O-])cc1[N+](=O)[O-]`, the T/C runs as follows: (dose: 0.62 mg/kg/injection, schedule: Q01DX009 (ip), vehicle: saline) 96 % of control; (dose: 1.25 mg/kg/injection, schedule: Q01DX009 (ip), vehicle: saline) 102 % of control; (dose: 2.5 mg/kg/injection, schedule: Q01DX009 (ip), vehicle: saline) 93 % of control; (dose: 2.5 mg/kg/injection, schedule: Q01DX015 (ip), vehicle: carboxymethylcellulose (CMC)) 95 % of control; (dose: 3.13 mg/kg/injection, schedule: Q04DX003 (ip), vehicle: saline with Tween-80) 106 % of control; (dose: 5.0 mg/kg/injection, schedule: Q01DX009 (ip), vehicle: saline) 104 % of control. Besides, the T/C was 95 % of control (dose: 5.0 mg/kg/injection, schedule: Q01DX015 (ip), vehicle: carboxymethylcellulose (CMC)); 90 % of control (dose: 6.25 mg/kg/injection, schedule: Q04DX003 (ip), vehicle: saline with Tween-80); 92 % of control (dose: 10.0 mg/kg/injection, schedule: Q01DX009 (ip), vehicle: saline with Tween-80); 96 % of control (dose: 10.0 mg/kg/injection, schedule: Q01DX009 (ip), vehicle: saline); 91 % of control (dose: 10.0 mg/kg/injection, schedule: Q01DX015 (ip), vehicle: carboxymethylcellulose (CMC)); 94 % of control (dose: 12.5 mg/kg/injection, schedule: Q04DX003 (ip), vehicle: saline with Tween-80). The T/C reads like this: (dose: 12.5 mg/kg/injection, schedule: Q04DX003 (ip), vehicle: saline) 86 % of control; (dose: 20.0 mg/kg/injection, schedule: Q01DX009 (ip), vehicle: saline with Tween-80) 103 % of control; (dose: 25.0 mg/kg/injection, schedule: Q04DX003 (ip), vehicle: saline with Tween-80) 105 % of control; (dose: 50.0 mg/kg/injection, schedule: Q01DX001 (ip), vehicle: saline) 104 % of control and 106 % of control; (dose: 100.0 mg/kg/injection, schedule: Q01DX001 (ip), vehicle: saline) 95 % of control and 91 % of control; (dose: 200.0 mg/kg/injection, schedule: Q01DX001 (ip), vehicle: saline) 112 % of control. Further, the T/C (dose: 400.0 mg/kg/injection, schedule: Q01DX001 (ip), vehicle: saline) is 106 % of control.

As to `OCCOC(O)C(Cl)(Cl)Cl` (configuration not stated), the T/C was 100 % of control (dose: 100.0 mg/kg/injection, schedule: Q04DX002 (ip), vehicle: saline); 92 % of control (dose: 200.0 mg/kg/injection, schedule: Q04DX002 (ip), vehicle: saline); 95 % of control (dose: 400.0 mg/kg/injection, schedule: Q04DX002 (ip), vehicle: saline).

For `CCCCC1(C2CCCC2)NC(C)(C)CC(C)O1` (configuration not stated), the T/C runs as follows: under setting [1], 95 % of control; under setting [2], 104 % of control.

Consider `CCOC(=O)C1CCCCC1O` (configuration not stated), for which the T/C reads like this: (dose: 50.0 mg/kg/injection, schedule: Q01DX009 (ip), vehicle: saline with Tween-80) 103 % of control; under setting [1], 95 % of control; (dose: 100.0 mg/kg/injection, schedule: Q04DX002 (ip), vehicle: saline with Tween-80) 97 % of control; under setting [2], 103 % of control; (dose: 200.0 mg/kg/injection, schedule: Q04DX002 (ip), vehicle: saline with Tween-80) 97 % of control; (dose: 400.0 mg/kg/injection, schedule: Q04DX002 (ip), vehicle: saline with Tween-80) 104 % of control.

`COc1cc(C)c2cccc(OC)c2n1`: the T/C reads like this: (dose: 100.0 mg/kg/injection, schedule: Q01DX009 (ip), vehicle: Klucel (hydroxypropylcellulose) (HPC)) 114 % of control; (dose: 100.0 mg/kg/injection, schedule: Q04DX003 (ip), vehicle: Klucel (hydroxypropylcellulose) (HPC)) 105 % of control; (dose: 200.0 mg/kg/injection, schedule: Q01DX009 (ip), vehicle: Klucel (hydroxypropylcellulose) (HPC)) 108 % of control; (dose: 200.0 mg/kg/injection, schedule: Q04DX003 (ip), vehicle: Klucel (hydroxypropylcellulose) (HPC)) 90 % of control; (dose: 400.0 mg/kg/injection, schedule: Q01DX009 (ip), vehicle: Klucel (hydroxypropylcellulose) (HPC)) 98 % of control; (dose: 400.0 mg/kg/injection, schedule: Q04DX003 (ip), vehicle: Klucel (hydroxypropylcellulose) (HPC)) 94 % of control.

As to `CN(Cc1cnc2nc(N)nc(N)c2n1)c1ccc(C(=O)NC(CCC(=O)O)C(=O)O)cc1Cl` (configuration not stated), the T/C was 114 % of control (dose: 1.25 mg/kg/injection, schedule: Q01DX001 (ip), vehicle: saline); 291 % of control (dose: 2.0 mg/kg/injection, schedule: Q01DX015 (ip), vehicle: saline); 114 % of control (dose: 2.5 mg/kg/injection, schedule: Q01DX001 (ip), vehicle: saline); 118 % of control (dose: 5.0 mg/kg/injection, schedule: Q01DX001 (ip), vehicle: saline); 166 % of control (dose: 7.5 mg/kg/injection, schedule: Q01DX015 (ip), vehicle: saline).

As for `CC(=O)SCC(C)SC(C)=O` (configuration not stated), the T/C is 93 % of control (dose: 12.5 mg/kg/injection, schedule: Q04DX002 (ip), vehicle: saline with Tween-80); 98 % of control (dose: 25.0 mg/kg/injection, schedule: Q04DX002 (ip), vehicle: saline with Tween-80); 93 % of control (dose: 50.0 mg/kg/injection, schedule: Q04DX002 (ip), vehicle: saline with Tween-80).

Turning to `COc1cc(Oc2c(OC)cc(NC(C)=O)cc2OC)cc(OC)c1OC`, the T/C by setting is: (dose: 100.0 mg/kg/injection, schedule: Q04DX003 (ip), vehicle: saline with Tween-80) 94 % of control; (dose: 200.0 mg/kg/injection, schedule: Q04DX003 (ip), vehicle: saline with Tween-80) 97 % of control; (dose: 400.0 mg/kg/injection, schedule: Q04DX003 (ip), vehicle: saline with Tween-80) 95 % of control.
